What was measured:
[1] = target: T1, hPPAR gamma (Homo sapiens, UniProt P37231); experiment: Transient transfection (transactivation) assay in CV-1 cells, GAL4-PPAR LBD chimera, SPAP reporter; type: cell-based; conditions: read-out: EC50 μM HPPARγ
T1 construct: expressed in transfected cells; host or cells: CV-1 cells
T1 sequence (P37231 238-503 limits assumed): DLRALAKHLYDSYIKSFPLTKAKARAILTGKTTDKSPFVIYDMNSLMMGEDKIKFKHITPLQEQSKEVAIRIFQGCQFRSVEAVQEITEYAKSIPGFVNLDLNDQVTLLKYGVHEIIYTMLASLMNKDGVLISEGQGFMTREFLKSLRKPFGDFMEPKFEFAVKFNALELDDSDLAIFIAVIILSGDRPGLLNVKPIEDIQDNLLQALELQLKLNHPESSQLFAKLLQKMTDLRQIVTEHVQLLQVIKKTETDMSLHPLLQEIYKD
Source text: Compounds were screened for functional potency in transient transfection assays in CV-1 cells for their ability to activate the PPAR subtypes (transactivation assay). A previously established chimeric receptor system was utilized to allow comparison of the relative transcriptional activity of the receptor subtypes on the same target gene and to prevent endogenous receptor activation from complicating the interpretation of results. […] The ligand binding domains for murine and human PPAR alpha, PPAR gamma, and PPAR delta were each fused to the yeast transcription factor GAL4 DNA binding domain. CV-1 cells were transiently transfected with expression vectors for the respective PPAR chimera along with a reporter construct containing five copies of the GAL4 DNA binding site driving expression of secreted placental alkaline phosphatase (SPAP) and beta-galactosidase. After 16 h, the medium was exchanged to DME medium supplemented with 10% delipidated fetal calf serum and the test compound at the appropriate concentration. After an additional 24 h, cell extracts were prepared and assayed for alkaline phosphatase and β-galactosidase activity.

[2] = target: T2, hPPAR delta (Homo sapiens, UniProt Q03181); experiment: as above; type: cell-based; conditions: read-out: EC50 μM HPPARδ
T2 construct: expressed in transfected cells; host or cells: CV-1 cells
T2 sequence (Q03181 211-439 limits assumed): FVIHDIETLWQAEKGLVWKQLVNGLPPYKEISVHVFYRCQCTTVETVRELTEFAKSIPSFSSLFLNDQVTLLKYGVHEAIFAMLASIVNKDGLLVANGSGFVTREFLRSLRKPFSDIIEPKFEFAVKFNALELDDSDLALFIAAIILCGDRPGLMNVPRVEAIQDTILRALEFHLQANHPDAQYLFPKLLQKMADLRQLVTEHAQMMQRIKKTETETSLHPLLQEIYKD
Source text: (§1) Compounds were screened for functional potency in transient transfection assays in CV-1 cells for their ability to activate the PPAR subtypes (transactivation assay). A previously established chimeric receptor system was utilized to allow comparison of the relative transcriptional activity of the receptor subtypes on the same target gene and to prevent endogenous receptor activation from complicating the interpretation of results. See, for example, Lehmann, J. M.; Moore, L. B.; Smith-Oliver, T. A.; Wilkison, W. O.; Willson, T. M.; Kliewer, S. A., An antidiabetic thiazolidinedione is a high affinity ligand for peroxisome proliferator-activated receptor gamma (PPARgamma), J. Biol. Chem., 270, 12953-6 (1995). The ligand binding domains for murine and human PPAR alpha, PPAR gamma, and PPAR delta were each fused to the yeast transcription factor GAL4 DNA binding domain. CV-1 cells were transiently transfected with expression vectors for the respective PPAR chimera along with a reporter construct containing five copies of the GAL4 DNA binding site driving expression of secreted placental alkaline phosphatase (SPAP) and beta-galactosidase. After 16 h, the medium was exchanged to DME medium supplemented with 10% delipidated fetal calf serum and the test compound at the appropriate concentration. After an additional 24 h, cell extracts were prepared and assayed for alkaline phosphatase and β-galactosidase activity. Alkaline phosphatase activity was corrected for transfection efficiency using the beta-galactosidase activity as an internal standard (see, for example, Kliewer, S. A., et. al. Cell 83, 813-819 (1995)). Rosiglitazone (BRL 49653) was used as a positive control in the hPPAR gamma assay. The positive control in the hPPAR alpha assays was 2-4-[2-(3-[4-fluorophenyl]-1-heptylureido)ethyl]-phenoxy-(2-methyl propionic acid (WO 97/36579). The positive control for PPAR delta assays was 2-{2-methyl-4-[({4-methyl-2-{trifluoromethyl)phenyl]-1,3-thiazol-5-yl}methyl)sulfanyl]phenoxy}acetic acid (WO 01/00603). The positive control was (5-{4-[2-(Methyl-pyridin-2-yl-amino)-ethoxy]-benzyl}-thiazolidine-2,4-dione (J. Med. Chem. 1994, 37(23), 3977), for PPAR gamma.
(§2) Activities in three hPPAR subtypes are reported in the table and are expressed in micromolar.

[3] = target: T3, hPPAR alpha (Homo sapiens, UniProt Q07869); experiment: as above; type: cell-based; conditions: read-out: EC50 μM HPPARα
T3 construct: expressed in transfected cells; host or cells: CV-1 cells
T3 sequence (Q07869 239-466 limits assumed): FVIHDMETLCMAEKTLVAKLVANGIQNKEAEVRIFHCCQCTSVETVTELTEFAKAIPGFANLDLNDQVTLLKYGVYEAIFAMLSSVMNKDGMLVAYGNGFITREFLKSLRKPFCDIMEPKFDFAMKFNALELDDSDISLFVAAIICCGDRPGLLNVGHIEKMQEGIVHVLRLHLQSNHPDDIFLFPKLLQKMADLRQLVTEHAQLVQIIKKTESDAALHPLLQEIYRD
Source text: as §1, §2

Compound | EC50 [1] [µM] | EC50 [2] [µM] | EC50 [3] [µM] | melting point
Cc1cc(CNC(=O)c2cc(-c3cccc(-c4ccccc4)c3)nn2C)ccc1OC(C)(C)C(=O)O [Example 28, 2-[4-({[(3-biphenyl-3-yl-1-methyl-1H-pyrazol-5-yl)carbonyl]amino}methyl)-2-methylphenoxy]-2-methylpropanoic acid] | 1.47 | > 25 | 0.589 | 88 °C
Cc1cc(CNC(=O)c2cc(-c3ccc(-c4ccoc4)cc3)n(C)n2)ccc1OC(C)(C)C(=O)O [Example 33, 2-[(4-{[({5-[4-(3-furanyl)phenyl]-1-methyl-1H-pyrazol-3-yl}carbonyl)amino]methyl}-2-methylphenyl)oxy]-2-methylpropanoic acid] | – | 1.64 | 0.004 | 102 °C
COCCn1nc(-c2ccc(C(C)(C)C)cc2)cc1C(=O)NCc1ccc(OC(C)(C)C(=O)O)c(C)c1 [Example 48, 2-[(4-{[({3-[4-(1,1-dimethylethyl)phenyl]-1-[2-(methyloxy)ethyl]-1H-pyrazol-5-yl}carbonyl)amino]methyl}-2-methylphenyl)oxy]-2-methylpropanoic acid] | 0.303 | 2.05 | 0.066 | 112 °C
Cc1cc(CNC(=O)c2cc(-c3ccc(OCc4ccccc4)cc3)nn2C)ccc1OC(C)(C)C(=O)O [Example 57, 2-methyl-2-{[2-methyl-4-({[(1-methyl-3-{4-[(phenylmethyl)oxy]phenyl}-1H-pyrazol-5-yl)carbonyl]amino}methyl)phenyl]oxy}propanoic acid] | 0.118 | > 8 | 0.657 | 72 °C
Cc1cc(CNC(=O)c2cc(-c3ccc(C(C)(C)C)cc3)[nH]n2)ccc1OC(C)(C)C(=O)O [Example 53, 2-[(4-{[({5-[4-(1,1-dimethylethyl)phenyl]-1H-pyrazol-3-yl}carbonyl)amino]methyl}-2-methylphenyl)oxy]-2-methylpropanoic acid] | 0.269 | > 25 | 0.383 | 100 °C
Cc1cc(CNC(=O)c2cc(-c3ccc(-c4ccccc4C)cc3)nn2C)ccc1OC(C)(C)C(=O)O [Example 36, 2-methyl-2-{2-methyl-4-[({[1-methyl-3-(2′-methylbiphenyl-4-yl)-1H-pyrazol-5-yl]carbonyl}amino)methyl]phenoxy}propanoic acid] | 0.037 | 5.17 | 0.176 | 90 to 100 °C
Cc1cc(CNC(=O)c2cc(-c3ccc(-c4cccs4)cc3)n(C)n2)ccc1OC(C)(C)C(=O)O [Example 32, 2-methyl-2-[(2-methyl-4-{[({1-methyl-5-[4-(2-thienyl)phenyl]-1H-pyrazol-3-yl}carbonyl)amino]methyl}phenyl)oxy]propanoic acid] | 0.023 | > 25 | 0.015 | 92 °C
Cc1cc(CNC(=O)c2cc(-c3ccc(C(C)(C)C)cc3)nn2C)cc(C)c1OC(C)(C)C(=O)O [Example 26, 2-{4-[({[3-(4-tert-butylphenyl)-1-methyl-1H-pyrazol-5-yl]carbonyl}amino)methyl]-2,6-dimethylphenoxy}-2-methylpropanoic acid] | 0.016 | 1 | 0.003 | > 122 °C
Cc1cc(CNC(=O)c2cc(-c3ccc(-c4ccncc4)cc3)n(C)n2)ccc1OC(C)(C)C(=O)O [Example 34, 2-methyl-2-[(2-methyl-4-{[({1-methyl-5-[4-(4-pyridinyl)phenyl]-1H-pyrazol-3-yl}carbonyl)amino]methyl}phenyl)oxy]propanoic acid] | – | > 25 | 0.734 | 264 °C (dec.)
Cc1cc(CNC(=O)c2cc(-c3ccc(Br)cc3)n(C)n2)ccc1OC(C)(C)C(=O)O [Example 30, 2-({4-[({[5-(4-bromophenyl)-1-methyl-1H-pyrazol-3-yl]carbonyl}amino)methyl]-2-methylphenyl}oxy)-2-methylpropanoic acid] | 0.229 | 3.12 | 0.046 | 84 to 92 °C
CCCCc1ccc(-c2cc(C(=O)NCc3cc(C)c(OC(C)(C)C(=O)O)c(C)c3)nn2C)cc1 [Example 37, 2-{4-[({[5-(4-butylphenyl)-1-methyl-1H-pyrazol-3-yl]carbonyl}amino)methyl]-2,6-dimethylphenoxy}-2-methylpropanoic acid] | 0.021 | 0.449 | 0.006 | 72 °C
Cc1cc(CNC(=O)c2cc(-c3ccc(-c4ccco4)cc3)n(C)n2)ccc1OC(C)(C)C(=O)O [Example 35, 2-[(4-{[({5-[4-(2-furanyl)phenyl]-1-methyl-1H-prazol-3-yl}carbonyl)amino]methyl}-2-methylphenyl)oxy]-2-methylpropanoic acid] | 0.054 | > 25 | 0.024 | 96 °C
Cc1cc(CNC(=O)c2cc(-c3ccc(CC(C)C)cc3)n(C)n2)cc(Cl)c1OC(C)(C)C(=O)O [Example 27, 2-{2-chloro-4-[({[5-(4-isobutylphenyl)-1-methyl-1H-pyrazol-3-yl]carbonyl}amino)methyl]-6-methylphenoxy}-2-methylpropanoic acid] | 0.031 | 0.206 | < 0.001 | 75 to 80 °C
C=CCOc1ccc(-c2cc(C(=O)NCc3ccc(OC(C)(C)C(=O)O)c(C)c3)n(C)n2)cc1 [Example 56, 2-methyl-2-[(2-methyl-4-{[({1-methyl-3-[4-(2-propen-1-yloxy)phenyl]-1H-pyrazol-5-yl}carbonyl)amino]methyl}phenyl)oxy]propanoic acid] | 0.287 | > 25 | 0.894 | 70 °C
Cc1cc(CNC(=O)c2cc(-c3ccc(C(C)(C)C)cc3)nn2CC(=O)c2ccccc2)ccc1OC(C)(C)C(=O)O [Example 49, 2-({4-[({[3-[4-(1,1-dimethylethyl)phenyl]-1-(2-oxo-2-phenylethyl)-1H-pyrazol-5-yl]carbonyl}amino)methyl]-2methylphenyl}oxy)-2-methylpropanoic acid] | 0.052 | 1.17 | 0.257 | 116 °C
Cc1cc(CNC(=O)c2cc(-c3ccc(N4CCCCC4)cc3)nn2C)ccc1OC(C)(C)C(=O)O [Example 45] | 0.049 | > 25 | 0.836 | –

From patent publication US20080021030A1, “Substituted Pyrazoles As Ppar Agonists” (priority 2003, published 2008)
